Reference: US20250032477A1, “COMPOUNDS, PHARMACEUTICAL COMPOSITIONS, AND METHODS FOR THE TREATMENT, PREVENTION, OR MANAGEMENT OF HYPERPROLIFERATIVE DISORDERS” (VINCERX PHARMA GMBH, priority 2021, published 2025)
Structures can show the parent of a compound that is named as a salt. Where two headings read alike, the source gives them in different places.

Columns and labels:
SUM149 [1] = experiment: Cytotoxicity in vitro in the presence and absence of elastase (MTT); type: cell-based
Protocol: (§1) Cultivation of cells was performed according to standard procedures with the media recommended by the provider. The cells, in a total volume of 100 μL, were seeded in a 96-well plate with a white bottom (#3610). After a 24 h incubation period at 37° C. and […], the medium was exchanged by adding 90 μL fresh medium. The treatment started by adding the test compound in 10 μL of culture medium to the cells in triplicates. Concentrations ranging from 10^−5 M to 10^−13 M were chosen. Two identically treated sets of samples were prepared. One set was treated with the test compound alone, whereas to the second set the compound and 10 nM elastase was added followed by a 72 h incubation period at 37° C. and 5% CO2. The proliferation was detected using the MTT assay (ATCC). At the end of the incubation period the MTT reagent was added to all samples for 4 h. Lysis of the cells followed by addition of the detergent was done overnight. The formed dye was detected at 570 nm. The proliferation of untreated but otherwise identically handled cells was define as the […].

SUM149 [2] = experiment: Cytotoxicity assay (Version 2), automated, AC50, with or without elastase; type: cell-based
Protocol: as §1
(§2) The Cytotoxicity assay (Version 2) was performed as above described. Some changes were applied as the assays were performed in an automated fashion and the IC50 values determination was changed. Here the change in metabolic activity of the cells, in percent, was calculated by normalization of the measured values to the absorbance values of medium containing wells without cells (=−100%) and the absorbance of the DMSO-treated cells (=0%). AC50 values (activity concentration at −50%) were determined by means of a 4 parameter Hill-fit using GeneData Screener software.

786-O [3] = experiment: as above; type: cell-based, human
Protocol: as §1, §2

NCI H292 [4] = experiment: as above; type: cell-based, human
Protocol: as §1, §2

HT29 [5] = experiment: as above; type: cell-based, human
Protocol: as §1, §2

786-O [6] = experiment: Cytotoxicity in vitro in the presence and absence of elastase (MTT); type: cell-based, human
Protocol: as §1

NCI H292 [7] = experiment: as above; type: cell-based, human
Protocol: as §1

HT29 [8] = experiment: as above; type: cell-based, human
Protocol: as §1

[9] = SUM149 cells, Version 2, with elastase, activity concentration at −50%, read-out: SUM149 AC50 +elastase
[10] = SUM149 cells, Version 2, without elastase, activity concentration at −50%, read-out: SUM149 AC50 −elastase
[11] = 786-O cells, Version 2, with elastase, activity concentration at −50%, read-out: 786-O AC50 +elastase
[12] = 786-O cells, Version 2, without elastase, activity concentration at −50%, read-out: 786-O AC50 −elastase
[13] = NCI H292 cells, Version 2, with elastase, activity concentration at −50%, read-out: NCI H292 AC50 +elastase
[14] = NCI H292 cells, Version 2, without elastase, activity concentration at −50%, read-out: NCI H292 AC50 −elastase
[15] = HT29 cells, Version 2, with elastase, activity concentration at −50%, read-out: HT29 AC50 +elastase
[16] = HT29 cells, Version 2, without elastase, activity concentration at −50%, read-out: HT29 AC50 −elastase
[17] = read-out: SUM149 AC50 +elastase
[18] = read-out: SUM149 AC50 −elastase
[19] = read-out: NCI H292 AC50 +elastase
[20] = read-out: NCI H292 AC50 −elastase

Question: `CCCNC(=O)Nc1cccc(S(=O)(=O)Nc2cccc([C@@H](CC(=O)O)NC(=O)Nc3ccc(NC(=O)NCCOCCOCCOCCC(=O)N[C@@H](CC(=O)O)C(=O)N4CCC[C@H]4C(=O)N[C@H](C(=O)O[C@]4(CC)C(=O)OCc5c4cc4n(c5=O)Cc5c-4nc4cc(F)c(C)c6c4c5[C@@H](N)CC6)C(C)C)cc3)c2)c1` [Compound 4b, disodium (1S,9S)-1-amino-9-ethyl-5-fluoro-4-methyl-10,13-dioxo-2,3,9,10,13,15-hexahydro-1H,12H-benzo[de]pyrano[3′,4′:6,7]indolizino[1,2-b]quinolin-9-yl 1-{(2S)-2-(carboxylatomethyl)-17-[4-({[(1R)-2-carboxylato-1-{3-[({3-[(propylcarbamoyl)amino]phenyl}sulfonyl)amino]phenyl}ethyl]carbamoyl}amino)anilino]-4,17-dioxo-7,10,13-trioxa-3,16-diazaheptadecan-1-oyl}-L-prolyl-L-valinate] was tested. Which IC50 (SUM149 [1]; SUM149 cells, with 10 nM elastase, 72 h, MTT, read-out: SUM149 IC50 w elastase) did it give?
Answer: < 0.01 nM

Question: What about the IC50 (SUM149 [1]; SUM149 cells, without elastase, 72 h, MTT, read-out: SUM149 IC50 w/o) of the same compound?
Answer: 1.1 to 10 nM

Question: What about the AC50 (SUM149 [2]; [9]) of the same compound?
Answer: < 1 nM

Question: What about the AC50 (SUM149 [2]; [10]) of the same compound?
Answer: 11 to 100 nM

Question: What about the AC50 (786-O [3]; [11]) of the same compound?
Answer: 1.1 to 10 nM

Question: What about the AC50 (786-O [3]; [12]) of the same compound?
Answer: > 100 nM

Question: What about the AC50 (NCI H292 [4]; [13]) of the same compound?
Answer: 1.1 to 10 nM

Question: And the AC50 (NCI H292 [4]; [14])?
Answer: > 100 nM

Question: What about the AC50 (HT29 [5]; [15]) of the same compound?
Answer: 1.1 to 10 nM

Question: And the AC50 (HT29 [5]; [16])?
Answer: > 100 nM

Question: And the IC50 (786-O [6]; 786-O cells, with 10 nM elastase, 72 h, MTT, read-out: 786-O IC50 w elastase)?
Answer: 0.01 to 0.1 nM

Question: And the IC50 (786-O [6]; 786-O cells, without elastase, 72 h, MTT, read-out: 786-O IC50 w/o)?
Answer: 10 to 100 nM

Question: And the IC50 (NCI H292 [7]; NCI H292 cells, with 10 nM elastase, 72 h, MTT, read-out: NCI H292 IC 50 w elastase)?
Answer: 0.01 to 0.1 nM

Question: And the IC50 (NCI H292 [7]; NCI H292 cells, without elastase, 72 h, MTT, read-out: NCI H292 IC 50 w/o)?
Answer: 1.1 to 10 nM

Question: What about the IC50 (HT29 [8]; HT29 cells, with 10 nM elastase, 72 h, MTT, read-out: HT29 IC50 w elastase) of the same compound?
Answer: 0.1 to 1 nM

Question: And the IC50 (HT29 [8]; HT29 cells, without elastase, 72 h, MTT, read-out: HT29 IC50 w/o)?
Answer: 10 to 100 nM

Question: How did the IC50 (SUM149 [1]; read-out: SUM149 IC50 w elastase) turn out when `CCCNC(=O)Nc1cccc(S(=O)(=O)Nc2cccc([C@@H](CC(=O)O)NC(=O)Nc3ccc(NC(=O)NCCOCCOCCOCCC(=O)N[C@@H](CC(=O)O)C(=O)N4CCC[C@H]4C(=O)N[C@H](C(=O)O[C@]4(CC)C(=O)OCc5c4cc4n(c5=O)Cc5cc6cc7c(cc6nc5-4)OCO7)C(C)C)cc3)c2)c1` [Compound 5, (7S)-7-ethyl-8,11-dioxo-7,8,11,13-tetrahydro-2H,10H-[1,3]dioxolo[4,5-g]pyrano [3′,4′:6,7]indolizino[1,2-b]quinolin-7-yl N-(14-{4-[({(1R)-2-carboxy-1-[3-({3-[(propylcarbamoyl)amino]benzene-1-sulfonyl}amino)phenyl]ethyl}carbamoyl)amino]anilino}-14-oxo-4,7,10-trioxa-13-azatetradecanan-1-oyl)-L-alpha-aspartyl-L-prolyl-L-valinate-bis sodium salt] was run?
Answer: < 0.01 nM

Question: What about the IC50 (SUM149 [1]; read-out: SUM149 IC50 w/o) of the same compound?
Answer: 1.1 to 10 nM

Question: And the AC50 (SUM149 [2]; [17])?
Answer: < 1 nM

Question: And the AC50 (SUM149 [2]; [18])?
Answer: 11 to 100 nM

Question: And the AC50 (786-O [3]; read-out: 786-O AC50 +elastase)?
Answer: 1.1 to 10 nM

Question: What about the AC50 (786-O [3]; read-out: 786-O AC50 −elastase) of the same compound?
Answer: > 100 nM

Question: What about the AC50 (NCI H292 [4]; [19]) of the same compound?
Answer: < 1 nM

Question: And the AC50 (NCI H292 [4]; [20])?
Answer: > 100 nM

Question: What about the AC50 (HT29 [5]; read-out: HT29 AC50 +elastase) of the same compound?
Answer: 1.1 to 10 nM

Question: And the AC50 (HT29 [5]; read-out: HT29 AC50 −elastase)?
Answer: > 100 nM

Question: What about the IC50 (786-O [6]; read-out: 786-O IC50 w elastase) of the same compound?
Answer: < 0.01 nM

Question: What about the IC50 (786-O [6]; read-out: 786-O IC50 w/o) of the same compound?
Answer: 1.1 to 10 nM

Question: And the IC50 (NCI H292 [7]; read-out: NCI H292 IC 50 w elastase)?
Answer: < 0.01 nM

Question: And the IC50 (NCI H292 [7]; read-out: NCI H292 IC 50 w/o)?
Answer: 1.1 to 10 nM

Question: And the IC50 (HT29 [8]; read-out: HT29 IC50 w elastase)?
Answer: < 0.01 nM

Question: What about the IC50 (HT29 [8]; read-out: HT29 IC50 w/o) of the same compound?
Answer: 10 to 100 nM

Question: Which results are given for `CCCNC(=O)Nc1cccc(S(=O)(=O)Nc2cccc([C@@H](CC(=O)O)NC(=O)Nc3ccc(NC(=O)NCCOCCOCCOCCC(=O)N[C@@H](CC(=O)O)C(=O)N4CCC[C@H]4C(=O)N[C@H](C(=O)O[C@]4(CC)C(=O)OCc5c4cc4n(c5=O)Cc5c-4nc4cc(F)c(C)c6c4c5[C@@H](N(C)C)CC6)C(C)C)cc3)c2)c1` [Compound 20, (1S,9S)-1-(dimethylamino)-9-ethyl-5-fluoro-4-methyl-10,13-dioxo-2,3,9,10,13,15-hexahydro-1H,12H-benzo[de]pyrano[3′,4′:6,7]indolizino[1,2-b]quinolin-9-yl N-(14-{4-[({(1R)-2-carboxy-1-[3-({3-[(propylcarbamoyl)amino]benzene-1-sulfonyl}amino)phenyl]ethyl}carbamoyl)amino]anilino}-14-oxo-4,7,10-trioxa-13-azatetradecanan-1-oyl)-L-alpha-aspartyl-L-prolyl-L-valinate]?
Answer: AC50 (SUM149 [2]; [9]): 1.1 to 10 nM; AC50 (SUM149 [2]; [10]): > 100 nM; AC50 (786-O [3]; [11]): 1.1 to 10 nM; AC50 (786-O [3]; [12]): > 100 nM; AC50 (NCI H292 [4]; [13]): 1.1 to 10 nM; AC50 (NCI H292 [4]; [14]): > 100 nM; AC50 (HT29 [5]; [15]): 11 to 100 nM; AC50 (HT29 [5]; [16]): > 100 nM

Question: What does the source list for `CCCNC(=O)Nc1cccc(S(=O)(=O)Nc2cccc([C@@H](CC(=O)O)NC(=O)Nc3ccc(NC(=O)NCCOCCOCCOCCC(=O)NCCCC[C@H](NC(=O)CCOCCOCCOCCNC(=O)Nc4ccc(NC(=O)N[C@H](CC(=O)O)c5cccc(NS(=O)(=O)c6cccc(NC(=O)NCCC)c6)c5)cc4)C(=O)NCCOCCOCCOCCC(=O)N[C@@H](CC(=O)O)C(=O)N4CCC[C@H]4C(=O)N[C@H](C(=O)O[C@]4(CC)C(=O)OCc5c4cc4n(c5=O)Cc5cc6cc7c(cc6nc5-4)OCO7)C(C)C)cc3)c2)c1` [Compound 22]?
Answer: AC50 (SUM149 [2]; [17]): < 1 nM; AC50 (SUM149 [2]; [18]): 11 to 100 nM; AC50 (786-O [3]; read-out: 786-O AC50 +elastase): < 1 nM; AC50 (786-O [3]; read-out: 786-O AC50 −elastase): > 100 nM; AC50 (NCI H292 [4]; [19]): < 1 nM; AC50 (NCI H292 [4]; [20]): 1.1 to 10 nM; AC50 (HT29 [5]; read-out: HT29 AC50 +elastase): 1.1 to 10 nM; AC50 (HT29 [5]; read-out: HT29 AC50 −elastase): > 100 nM

Question: For `CCCNC(=O)Nc1cccc(S(=O)(=O)Nc2cccc([C@@H](CC(=O)O)NC(=O)Nc3ccc(NC(=O)NCCOCCOCCOCCC(=O)NCCCC[C@H](NC(=O)CCOCCOCCOCCNC(=O)Nc4ccc(NC(=O)N[C@H](CC(=O)O)c5cccc(NS(=O)(=O)c6cccc(NC(=O)NCCC)c6)c5)cc4)C(=O)NCCOCCOCCOCCC(=O)N[C@@H](CC(=O)O)C(=O)N4CCC[C@H]4C(=O)N[C@H](C(=O)O[C@]4(CC)C(=O)OCc5c4cc4n(c5=O)Cc5c-4nc4cc(F)c(C)c6c4c5[C@@H](NC(C)=O)CC6)C(C)C)cc3)c2)c1` [Compound 24], which AC50 (SUM149 [2]; [17]) is on record?
Answer: 1.1 to 10 nM

Question: And the AC50 (SUM149 [2]; [18])?
Answer: 11 to 100 nM

Question: And the AC50 (786-O [3]; read-out: 786-O AC50 +elastase)?
Answer: 1.1 to 10 nM

Question: And the AC50 (786-O [3]; read-out: 786-O AC50 −elastase)?
Answer: > 100 nM

Question: What about the AC50 (NCI H292 [4]; [19]) of the same compound?
Answer: 1.1 to 10 nM

Question: What about the AC50 (NCI H292 [4]; [20]) of the same compound?
Answer: > 100 nM

Question: What about the AC50 (HT29 [5]; read-out: HT29 AC50 +elastase) of the same compound?
Answer: 11 to 100 nM

Question: What about the AC50 (HT29 [5]; read-out: HT29 AC50 −elastase) of the same compound?
Answer: > 100 nM
